Source: patent US20030232862A1 (priority 2002, published 2003)

Legend:
[1] = tested on: HT-29 colon adenocarcinoma cells; test: Apoptosis by DNA fragmentation assay in HT-29 cells; type: cell-based, human; details: Table 9 qualitative profile; also: key: −: Not active; +: Slightly active; + +: Moderately active; + + +: Strongly active; + + + +: Highly active
[2] = tested on: HT-29 cells; test: Growth inhibition of HT-29 cells (SRB assay; trypan blue counting in time course); type: cell-based, human; details: Table 9 qualitative profile
[3] = tested on: premalignant lesions in mouse mammary gland organ culture; test: Mammary gland organ culture model; type: cell-based; as to mammary gland organ culture: key: −: Not active; +: Slightly active; + +: Moderately active; + + +: Strongly active; + + + +: Highly active
From the text: Test compounds identified by the above methods can be tested for antineoplastic activity by their ability to inhibit the incidence of pre-neoplastic lesions in a mammary gland organ culture system. This mouse mammary gland organ culture technique has been successfully used by other investigators to study the effects of known antineoplastic agents such as certain NSAIDs, retinoids, tamoxifen, selenium, and certain natural products, and is useful for validation of the screening method of the present invention.
For example, female BALB/c mice can be treated with a combination of estradiol and progesterone daily, in order to prime the glands to be responsive to hormones in vitro. The animals are sacrificed, and thoracic mammary glands are excised aseptically and incubated for ten days in growth media supplemented with insulin, prolactin, hydrocortisone, and aldosterone. DMBA (7,12-dimethylbenz(a)anthracene) is added to medium to induce the formation of premalignant lesions. Fully developed glands are then deprived of prolactin, hydrocortisone, and aldosterone, resulting in the regression of the glands but not the pre-malignant lesions.
The test compound is dissolved in DMSO and added to the culture media for the duration of the culture period. At the end of the culture period, the glands are fixed in 10% formalin, stained with alum carmine, and mounted on glass slides. The incidence of forming mammary lesions is the ratio of the glands with mammary lesions to […]. The incidence of mammary lesions in test compound treated glands is compared with that of the untreated glands.
The extent of the area occupied by the mammary lesions can be quantitated by projecting an image of the gland onto a digitation pad. The area covered by the gland is traced on the pad and considered as 100% of the area. The space covered by each of the non-regressed structures is also outlined on the digitization pad and quantitated by the computer.
Mammary gland organ culture experiment were performed as previously described (Mehta and Moon, Cancer Research, 46: 5832-5835, 1986).

[4] = tested on: β-catenin and PKG levels in SW480 cells; test: Western blot of β-catenin and PKG in SW480 cells; type: cell-based, human
Procedure: SW480 cells treated with exisulind as described previously are harvested from the microfuge tubes by rinsing once with ice-cold PBS. The cells are lysed by modified RIPA buffer for 15 minutes with agitation. The cell lysate is spun down in a cold room. The supernatants are transferred to fresh microcentrifuge tubes immediately after spinning. BioRad DC Protein Assay (Temecula, Calif.) is performed to determine the protein concentrations in samples. The samples are normalized for protein concentration, as described above.
50 μg of each sample is loaded onto a 10% SDS gel. SDS-PAGE is performed, and the proteins then are transferred to a nitrocellulose membrane. The blotted nitrocellulose membrane is blocked in freshly prepared TBST containing 5% nonfat dry milk for one hour at room temperature with constant agitation.
A goat-anti-PKG primary antibody is diluted to the recommended concentration/dilution in fresh TBST/5% nonfat dry milk. The nitrocellulose membrane is placed in the primary antibody solution and incubated one hour at room temperature with agitation. The nitrocellulose membrane is washed three times for ten minutes each with TBST. The nitrocellulose membrane is incubated in a solution containing a secondary peroxidase (POD) conjugated rabbit anti-goat antibody for 1 hour at room temperature with agitation. The nitrocellulose membrane is washed three times for ten minutes each time with TBST. The detection is performed by using Boehringer Mannheim BM blue POD substrate.
SW480 cells were treated with exisulind or vehicle (0.1% DMSO) for 48 hours. 50 μg supernatant of each cell lysate was loaded onto a 10% SDS-gel and blotted to a nitrocellulose membrane, and the membrane was probed with rabbit-anti-β-catenin and rabbit anti-PKG antibodies.
This observation was made by culturing SW480 cells with either 200, 400 or 600 μM exisulind or vehicle (0.1% DMSO). The cells are harvested 48 hours post treatment and processed for immunoblotting. Immuno-reactive protein can be detected by Western blot. […]

[5] = Clinical tolerability of exisulind; type: in vivo
From the text: This effect is reversible, and liver enzymes return to normal levels when the administered dose of exisulind returns to the traditionally recommended level or when treatment is discontinued. The purpose of using combinations is to allow a lower dose of each to be used.

CC1=C(CC(=O)O)c2cc(F)ccc2/C1=C\c1ccc(S(C)(=O)=O)cc1 [Exisulind, 5-fluoro-2-methyl-1-(p-methylsulfonylbenzylidene)-3-indenylacetic acid]
Apoptosis [1]: + + | Growth Inhibition [2]: + + | inhibition of formation of premalignant lesions ([3]; FIG. 17): effectively inhibit | Mammary Gland Organ Culture ([3]; Table 9 qualitative profile): + + + | reduction of β-catenin expression compared to control ([4]; SW480, 200, 400 or 600 μM, 48 hours): 50% | PKG level ([4]; SW480, 48 hours, FIG. 19): increase of PKG | β-catenin level ([4]; SW480, 48 hours, FIG. 19): drop of β-catenin | side effects at recommended dose ([5]; 300-400 mg/day): no clinically significant side effects | effect at doses higher than the recommended therapeutic levels ([5]; reversible): elevated levels of liver enzymes
